Data as given in patent US8497376B2, “Inhibitors of c-fms kinase” (Janssen Pharmaceutica N.V., priority 2007, dated 2013).

Key:
[1] = tested on: streptococcal cell wall (SCW) model of arthritis in rats; assay: SCW arthritis in rats (chronic phase, therapeutic dosing); assay type: in vivo, rat; conditions: for Number of steps taken using hind limbs in a thirty second observation period: average of three rats
Description: Purpose: A polyarthritis occurs in female Lewis rats following i.p. administration of streptococcal cell wall (SCW) components. The model has an acute non-erosive phase (days 3-7) that is complement and neutrophil dependent and which resolves. A chronic erosive phase begins at about day ten and is dependent on the development of specific T cell immunity to SCW, and possibly to self-antigens. The SCW-induced model has been used less frequently for pharmaceutical testing than the adjuvant-induced or collagen-induced models of arthritis, but each model predicts accurately the anti-inflammatory potential of TNF-inhibitors. The chronic phase of the SCW model is macrophage dependent.
Method: Female Lewis rats (80-100 gm each) were purchased from Charles River. Streptococcal cell wall peptidoglycan-polysaccharide polymers (PG-PS 10S) were purchased from BD (Cat#210866). PG-PS 10S was vortexed for 30 seconds to thoroughly mix the material and sonicated at low energy levels (level 6) for 3 min with a probe type sonicator prior to injection. On day 0, sixty rats were anesthetized using isoflurane, and injected i.p. with 15 μg of rhamnose/gram body weight (BW) in the lower left quadrant of the abdomen. Ten rats were treated in a similar manner with sterile saline.
(§1) Chronic, T-cell dependent, erosive arthritis was severe by day 20 at which time twice daily oral dosing was commenced until sacrificed on day 32 to determine if the compound of Example 15 (hereinafter, Compound A) can reverse established disease.
(§2) Compound A was formulated in 5% solutol, 5% ethanol, 90% water. The dose volume was 5 ml/kg.
Left and right hind ankles of each rat were measured with calipers every day for the first six days (post-injection) and then at least every two or three days for the remainder of the study. Ankles were assigned a clinical score based on erythema and swelling as follows: 1=ankle only; 2=ankle and proximal half of tarsal joint; 3=ankle and entire tarsal joint; 4=involvement of the entire paw including digits. Animal scores represented the sum of the two hind paws.
Disease reversal was accompanied by restoration of function. To assess function, three representative rats per group were videotaped for thirty seconds on days 19 and 32, and steps taken with hind limbs were counted and reported in Table 3. On day 19 following SCW, rats ambulated primarily using front paws. Hind paws were nearly immobilized.

[2] = in vivo; conditions: Lewis, rat, po
Experimental: as §1, §2
Exposure: Two hours following the last dose of 3, 10 and 20 mpk, plasma levels of Compound A were 247±22, 802±35, and 1475±70 ng/ml, respectively (mean±SEM).

[3] = tested on: mouse bone-marrow derived macrophages; assay: CSF-1-driven mouse bone-marrow derived macrophages assay (BrDU incorporation); assay type: cell-based; conditions: Mus musculus, BMDM, CSF-1-driven proliferation, 30 hrs culture
Experimental: Macrophages were derived by culturing mouse bone marrow in alpha-MEM supplemented with 10% FCS and 50 ng/ml recombinant mouse CSF-1 in bacteriologic dishes. On the sixth day, macrophages were detached from dishes, washed, and resuspended to 0.05 million cells/ml in alpha-MEM containing 10% FCS. One hundred ul of cell suspension were distributed per well into 96 well culture plates. Wells were further supplemented with the addition of 50 ul media containing 15 ng/ml CSF-1, 3 uM Indomethacin, and 3× of a dilution series of test compounds. The cells were cultured for 30 hrs at 37 degrees and 5% CO2. During the final six hours, cultures were supplemented with an additional 30 ul of media containing a 1:500 dilution of bromodeoxyuridine (BrDU). At the end of the culture period, the plates were spun at 1000 RPM for 1 minute and 130 ul of media was removed with a pipet and replaced with 150 ul of fixative solution for 1 hour@room temperature. The fixative was then dispelled from the plates and the plates allowed to air dry. Incorporation of BrDU into the fixed, dried cells was quantified using a specific ELISA.

[4] = biological target: c-fms (Homo sapiens (Human), UniProt P07333); assay: Autophosphorylation fluorescence polarization competition immunoassay for c-fms inhibition; assay type: biochemical; conditions: 10 nM c-fms, 1 mM ATP; average of three independent measurements
Experimental: The assay buffer used was 100 mM 4-(2-hydroxyethyl)piperazine1-ethanesulfonic acid (HEPES), pH 7.5, 1 mM 1,4-dithio-DL-threitol (DTT), 0.01% (v/v) Tween-20. Compounds were diluted in assay buffer containing 4% dimethylsulfoxide (DMSO) just prior to the assay. […] The kinase reaction was initiated by adding 2 μL of 5 mM ATP (Sigma) in assay buffer. The final concentrations in the assay were 10 nM c-fms, 1 mM ATP, 5 mM MgCl2, 2% DMSO. Control reactions were ran in each plate: in positive and negative control wells, assay buffer (made 4% in DMSO) was substituted for the compound; in addition, positive control wells received 1.2 μL of 50 mM ethylenediaminetetraaceticacid (EDTA). The plates were incubated at room temperature for 45 min. At the end of the incubation, the reaction was quenched with 1.2 μL of 50 mM EDTA (EDTA was not added to the positive control wells at this point; see above). Following a 5-min incubation, each well received 10 μL of a 1:1:3 mixture of anti-phosphotyrosine antibody, 10×, PTK green tracer, 10× (vortexed), FP dilution buffer, respectively (all from PanVera, cat. # P2837). The plate was covered, incubated for 30 min at room temperature and the fluorescence polarization was read on the Analyst. The instrument settings were: 485 nm excitation filter; 530 nm emission filter; Z height: middle of well; G factor: 0.93. […] The reported IC50 values are averages of three independent measurements.

c-fms, sequence (P07333 20-972): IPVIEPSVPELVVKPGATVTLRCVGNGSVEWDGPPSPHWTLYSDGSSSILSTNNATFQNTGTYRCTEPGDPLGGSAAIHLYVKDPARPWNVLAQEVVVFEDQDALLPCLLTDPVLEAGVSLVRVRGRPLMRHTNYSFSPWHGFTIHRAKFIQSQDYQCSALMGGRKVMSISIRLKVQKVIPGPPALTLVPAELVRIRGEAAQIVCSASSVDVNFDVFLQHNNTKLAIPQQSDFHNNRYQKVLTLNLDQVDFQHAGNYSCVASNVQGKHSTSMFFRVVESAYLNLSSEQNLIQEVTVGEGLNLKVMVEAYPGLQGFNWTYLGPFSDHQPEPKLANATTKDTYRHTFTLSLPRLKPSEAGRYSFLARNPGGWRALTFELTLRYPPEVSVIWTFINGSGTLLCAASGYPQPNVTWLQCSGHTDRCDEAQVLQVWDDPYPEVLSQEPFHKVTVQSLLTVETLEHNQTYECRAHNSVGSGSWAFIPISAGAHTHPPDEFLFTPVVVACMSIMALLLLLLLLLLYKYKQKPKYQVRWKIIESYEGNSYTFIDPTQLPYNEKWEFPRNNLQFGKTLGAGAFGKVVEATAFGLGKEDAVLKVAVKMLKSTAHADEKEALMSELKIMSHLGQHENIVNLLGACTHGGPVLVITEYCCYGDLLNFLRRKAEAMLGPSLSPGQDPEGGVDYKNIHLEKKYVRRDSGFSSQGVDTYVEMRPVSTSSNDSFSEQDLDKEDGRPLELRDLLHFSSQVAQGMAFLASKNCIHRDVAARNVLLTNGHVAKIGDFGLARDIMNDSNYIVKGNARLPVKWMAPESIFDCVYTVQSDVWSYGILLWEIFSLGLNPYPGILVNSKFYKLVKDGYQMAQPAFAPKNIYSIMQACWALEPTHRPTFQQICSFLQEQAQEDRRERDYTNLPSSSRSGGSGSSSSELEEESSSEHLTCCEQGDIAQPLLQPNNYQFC

For CC1(C)CC=C(c2nc(C3CC(C)(C)OC(C)(C)C3)ccc2NC(=O)c2nc(C#N)c[nH]2)CC1 [Example 15, 4-Cyano-1H-imidazole-2-carboxylic acid[2-(4,4-dimethyl-cyclohex-1-enyl)-6-(2,2,6,6-tetramethyl-tetrahydro-pyran-4-yl)-pyridin-3-yl]-amide], the “Number of steps taken using hind limbs in a thirty second observation period” value (shortened to “Number of steps taken using hind limbs”) ([1]; Day 19 (before treatment), 3 mg/kg group) was 1.7, the “Number of steps taken using hind limbs” value ([1]; Day 19 (before treatment), 10 mg/kg group) was 1.3 and the “Number of steps taken using hind limbs” value ([1]; Day 19 (before treatment), 20 mg/kg group) was 1.3. The “Number of steps taken using hind limbs” value ([1]; Day 32, 3 mg/kg oral b.i.d.) was 7.7, the “Number of steps taken using hind limbs” value ([1]; Day 32, 10 mg/kg oral b.i.d.) was 7.3 and the “Number of steps taken using hind limbs” value ([1]; Day 32, 20 mg/kg oral b.i.d.) was 6. For the same compound, the “use of hind limbs (function)” value ([1]; day 32, rats treated with Compound A) was “used hind limbs in a normal fashion”, the “paw swelling (caliper measurements of paw thickness and visual scores)” value ([1]; dosing p.o. b.i.d. initiated on day 20 after disease was severe, 3, 10, 20 mpk) was “caused a reversal of paw swelling” and the concentration at 2 h ([2]; 3 mg/kg) was 247 ± 22 ng/mL. For the same compound, the concentration at 2 h ([2]; 10 mg/kg) was 802 ± 35 ng/mL, the concentration at 2 h ([2]; 20 mg/kg) was 1480 ± 70 ng/mL and the IC50 [3] was 6.1 nM.

With C[C@@H]1C2CC[C@@H](O2)[C@H](C)[C@@]1(O)c1ccc(NC(=O)c2nc(C#N)c[nH]2)c(C2=CCC(C)(C)CC2)c1 [Example 29, 4-Cyano-N-(2-(4,4dimethylcyclohex-1-enyl)-4-[(3-exo)-3-hydroxy-(2-endo,4endo-dimethyl)-1,5-dimethyl-8-oxabicyclo[3.2.1]octan-3-yl)pheny]-1H-imidazole-2-carboxamide] the IC50 [4] was 14 nM and the IC50 [3] was 88 nM.
